Molecules are shown by their SMILES. Read-outs that look alike come from different tables or passages of the source.

Assay [1] deals with A375 (BRAF V600E) cell line. Briefly: A375 P-ERK inhibition assay (AlphaScreen). The assay is classed as cell-based, human. The following applies: Homo sapiens, A-375; A375_P-ERK. Summed up:
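A375 cells treated with 8-point compound titration for 1 h at 37° C, then lysed. ERK1/2 Thr202/Tyr204 phosphorylation measured by AlphaScreen, using biotinylated total-ERK antibody on donor beads and phospho-specific antibody on acceptor beads.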
(Alpha assays give light when donor and acceptor beads are brought close together.)

Assay [2] has as its system IPC-298 (NRAS Q61L) cell line. In words: IPC-298 P-ERK cell activation assay (AlphaScreen). In kind it is cell-based, human. The following applies: Homo sapiens, P-ERK cell activation, IPC-298, read-out: Cell activity (EC50 μM) IPC-298_P-ERK. An outline of the steps:
(§1)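 Mouse B9 (HRAS-driven skin SCC) or human IPC-298 melanoma cells treated with an 8-point compound titration for one hour at 37° C., then lysed. ERK1/2 phosphorylation at Thr202/Tyr204 read by AlphaScreen with total-ERK and phospho-ERK antibodies.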

The next assay deals with T1, BRAF V600E (Homo sapiens, UniProt P15056, V600E).
T1 construct: purchased Upstate Biotechnology
Briefly: BRAF V600E biochemical kinase activity assay (AlphaScreen, biotin-MEK1 substrate). The following applies: BRAF V600E biochemical inhibitory activity.

Another assay relates to B9 (HRAS Q61L) cell line. In words: B9 P-ERK cell activation assay (AlphaScreen). The following applies: Mus musculus, P-ERK cell activation, B9, read-out: Cell activity (EC50 μM) B9_pERK. In kind it is cell-based, mouse. Summed up: as §1

T1 sequence (P15056 whole entry V600E): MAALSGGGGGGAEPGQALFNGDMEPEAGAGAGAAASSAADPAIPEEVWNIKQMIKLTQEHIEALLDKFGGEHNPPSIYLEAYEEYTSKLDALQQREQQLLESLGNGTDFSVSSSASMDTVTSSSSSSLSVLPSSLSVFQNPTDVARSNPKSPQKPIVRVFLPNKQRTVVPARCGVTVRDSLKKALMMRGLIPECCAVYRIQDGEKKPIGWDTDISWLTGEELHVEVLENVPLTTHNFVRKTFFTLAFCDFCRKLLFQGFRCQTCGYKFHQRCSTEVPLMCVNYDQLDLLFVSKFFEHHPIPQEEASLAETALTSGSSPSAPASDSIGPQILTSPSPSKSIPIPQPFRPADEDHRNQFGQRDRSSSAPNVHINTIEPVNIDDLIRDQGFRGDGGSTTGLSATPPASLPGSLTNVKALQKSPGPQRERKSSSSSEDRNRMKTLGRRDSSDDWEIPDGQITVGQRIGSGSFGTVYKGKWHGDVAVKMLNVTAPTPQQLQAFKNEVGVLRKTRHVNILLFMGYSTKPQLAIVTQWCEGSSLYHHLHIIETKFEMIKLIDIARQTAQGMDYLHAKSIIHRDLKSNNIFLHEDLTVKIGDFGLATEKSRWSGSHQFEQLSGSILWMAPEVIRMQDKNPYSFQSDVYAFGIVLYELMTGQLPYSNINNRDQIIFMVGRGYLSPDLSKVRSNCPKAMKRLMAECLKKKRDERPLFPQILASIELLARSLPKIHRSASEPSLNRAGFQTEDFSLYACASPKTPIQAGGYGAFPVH

The IC50 is the point on the concentration scale where inhibition reaches its midpoint. The term EC50 denotes the concentration needed to bring the measured effect to its halfway point. Consider `O=C(c1cccc(NS(=O)(=O)N2CCCC2)c1F)c1c[nH]c2ncnc(NCCCN3CCOCC3)c12` [P-2111, N-[2-fluoro-3-[4-(3-morpholinopropylamino)-7H-pyrrolo[2,3-d]pyrimidine-5-carbonyl]phenyl]pyrrolidine-1-sulfonamide], for which the IC50 (in assay [1]; against BRAF V600E) was 0.0001 to 1 µM in each case. Besides, the EC50 (in assay [2] (numeric bounds); in the assay with B9 (HRAS Q61L) cell line (numeric bounds)) was more than 10 µM throughout.

`CNc1ncnc2[nH]cc(C(=O)c3cccc(NS(=O)(=O)N4CCCC4)c3F)c12` [P-2071, N-[2-fluoro-3-[4-(methylamino)-7H-pyrrolo[2,3-d]pyrimidine-5-carbonyl]phenyl]pyrrolidine-1-sulfonamide]: the IC50 (in assay [1]; against BRAF V600E) was 0.0001 to 1 µM each time. Moreover, the EC50 (in assay [2] (numeric bounds); with B9 (HRAS Q61L) cell line (numeric bounds)) was more than 10 µM throughout.

For the compound `CC(C)(C)c1nc(-c2cccc(NS(=O)(=O)N3CC[C@H](F)C3)c2F)c(-c2ccnc(N)n2)s1` [P-2130, (3S)-N-[3-[5-(2-aminopyrimidin-4-yl)-2-tert-butyl-thiazol-4-yl]-2-fluoro-phenyl]-3-fluoro-pyrrolidine-1-sulfonamide], the IC50 (in assay [1]; at BRAF V600E) was 0.0001 to 1 µM each time. For the same compound, the EC50 (in assay [2] (class symbols); with B9 (HRAS Q61L) cell line (class symbols)) was 0.0001 to 1 µM each time.

Take `CN(C)S(=O)(=O)Nc1cc(F)cc(C(=O)c2c[nH]c3ncc(-c4cnc(C5CC5)nc4)cc23)c1F` [P-2173, 5-(2-cyclopropylpyrimidin-5-yl)-3-[3-(dimethylsulfamoylamino)-2,5-difluoro-benzoyl]-1H-pyrrolo[2,3-b]pyridine]: the IC50 (in assay [1]; against BRAF V600E) was 0.0001 to 1 µM each time. Also, the EC50 in assay [2] (numeric bounds) is more than 1 µM; in the assay with B9 (HRAS Q61L) cell line (numeric bounds), more than 10 µM.

`COC(=O)N[C@@H](C)CNc1nccc(-c2nn(C(C)C)cc2-c2cc(Cl)cc(NS(=O)(=O)C3CCC3)c2F)n1` [P-2169, methyl N-[(1S)-2-[[4-[4-[5-chloro-3-(cyclobutylsulfonylamino)-2-fluoro-phenyl]-1-isopropyl-pyrazol-3-yl]pyrimidin-2-yl]amino]-1-methyl-ethyl]carbamate]: the IC50 (in assay [1]; against BRAF V600E) was 0.0001 to 1 µM throughout. The EC50 (in assay [2] (class symbols); in the assay on B9 (HRAS Q61L) cell line (class symbols)) was 0.0001 to 1 µM throughout.

For `CCN(C)S(=O)(=O)Nc1ccc(F)c(C(=O)c2c[nH]c3ncnc(NCCOC)c23)c1F` [P-2100, 5-[3-[[ethyl(methyl)sulfamoyl]amino]-2,6-difluoro-benzoyl]-4-(2-methoxyethylamino)-7H-pyrrolo[2,3-d]pyrimidine], the IC50 (in assay [1]; against BRAF V600E) was 0.0001 to 1 µM in each case. The EC50 (in assay [2] (numeric bounds); in the assay on B9 (HRAS Q61L) cell line (numeric bounds)) was more than 10 µM throughout.

As for `COc1ncnc2[nH]cc(C(=O)c3cccc(NS(=O)(=O)N4CCCC4)c3F)c12` [P-2084, N-[2-fluoro-3-(4-methoxy-7H-pyrrolo[2,3-d]pyrimidine-5-carbonyl)phenyl]pyrrolidine-1-sulfonamide], the IC50 (in assay [1]; on BRAF V600E) was 0.0001 to 1 µM in each case. Besides, the EC50 (in assay [2] (numeric bounds); in the assay on B9 (HRAS Q61L) cell line (numeric bounds)) was more than 10 µM throughout.

Consider `O=C(c1c(F)ccc(NS(=O)(=O)C2CCCCC2)c1F)c1c[nH]c2nccc(Cl)c12` [P-2014, N-[3-(4-chloro-1H-pyrrolo[2,3-b]pyridine-3-carbonyl)-2,4-difluoro-phenyl]cyclohexanesulfonamide], for which the IC50 (in assay [1]; at BRAF V600E) was 0.0001 to 1 µM in each case. The EC50 (in assay [2] (numeric bounds); with B9 (HRAS Q61L) cell line (numeric bounds)) was more than 10 µM in each case.

Consider `O=C(c1cccc(NS(=O)(=O)N2CCCC2)c1F)c1c[nH]c2ncnc(NC3(C(=O)O)CC3)c12` [P-2097, 1-[[5-[2-fluoro-3-(pyrrolidin-1-ylsulfonylamino)benzoyl]-7H-pyrrolo[2,3-d]pyrimidin-4-yl]amino]cyclopropanecarboxylic acid], for which the half-maximal inhibitory concentration (IC50) in assay [1] was more than 10 µM; against BRAF V600E, 1 to 10 µM. The EC50 (in assay [2] (numeric bounds); in the assay on B9 (HRAS Q61L) cell line (numeric bounds)) was more than 10 µM each time.

With `CCN(CC)S(=O)(=O)Nc1cc(Cl)cc(-c2cn(C(C)C)nc2-c2ccnc(NC[C@H](C)NC(=O)OC)n2)c1F` [P-2165, methyl N-[(1S)-2-[[4-[4-[5-chloro-3-(diethylsulfamoylamino)-2-fluoro-phenyl]-1-isopropyl-pyrazol-3-yl]pyrimidin-2-yl]amino]-1-methyl-ethyl]carbamate], the IC50 (in assay [1]; against BRAF V600E) was 0.0001 to 1 µM throughout. In addition, the concentration for a half-maximal effect (EC50) (in assay [2] (numeric bounds); with B9 (HRAS Q61L) cell line (numeric bounds)) was more than 10 µM in each case.

As for `CCN(C)S(=O)(=O)Nc1cccc(C(=O)c2c[nH]c3ncnc(NCCCOC)c23)c1F` [P-2115, 5-[3-[[ethyl(methyl)sulfamoyl]amino]-2-fluoro-benzoyl]-4-(3-methoxypropylamino)-7H-pyrrolo[2,3-d]pyrimidine], the IC50 (in assay [1]; at BRAF V600E) was 0.0001 to 1 µM in each case. Also, the EC50 (in assay [2] (numeric bounds); in the assay on B9 (HRAS Q61L) cell line (numeric bounds)) was more than 10 µM each time.

`COC(=O)N[C@@H](C)CNc1nccc(-c2nn(C(C)C)cc2-c2cc(Cl)cc(NS(=O)(=O)N3CC[C@@H](F)C3)c2F)n1` [P-2161, methyl N-[(1S)-2-[[4-[4-[5-chloro-2-fluoro-3-[[(3R)-3-fluoropyrrolidin-1-yl]sulfonylamino]phenyl]-1-isopropyl-pyrazol-3-yl]pyrimidin-2-yl]amino]-1-methyl-ethyl]carbamate]: the IC50 (in assay [1]; at BRAF V600E) was 0.0001 to 1 µM in each case. Further, the EC50 is more than 10 µM in assay [2] (numeric bounds) and 0.0001 to 1 µM in the assay with B9 (HRAS Q61L) cell line (class symbols).

As to `CCC(C)S(=O)(=O)Nc1ccc(F)c(C(=O)c2c[nH]c3ncnc(NCC4CC4)c23)c1F` (stereo not drawn) [P-2056, N-[3-[4-(cyclopropylmethylamino)-7H-pyrrolo[2,3-d]pyrimidine-5-carbonyl]-2,4-difluoro-phenyl]butane-2-sulfonamide], the IC50 (in assay [1]; on BRAF V600E) was 0.0001 to 1 µM in each case. Besides, the EC50 (in assay [2] (numeric bounds); with B9 (HRAS Q61L) cell line (numeric bounds)) was more than 10 µM throughout.

As to `CCN(CC)S(=O)(=O)Nc1ccc(F)c(C(=O)c2c[nH]c3nccc(OC)c23)c1F` [Compound P-2004, 3-[3-(diethylsulfamoylamino)-2,6-difluoro-benzoyl]-4-methoxy-1H-pyrrolo[2,3-b]pyridine], the IC50 in assay [1] is more than 10 µM; at BRAF V600E it was 1 to 10 µM. Further, the EC50 (in assay [2] (numeric bounds); in the assay on B9 (HRAS Q61L) cell line (numeric bounds)) was more than 10 µM in each case.

In the case of `N#Cc1ccnc2[nH]cc(C(=O)c3c(F)ccc(NS(=O)(=O)C4CCC4)c3F)c12` [P-2021, N-[3-(4-cyano-1H-pyrrolo[2,3-b]pyridine-3-carbonyl)-2,4-difluoro-phenyl]cyclobutanesulfonamide], the IC50 was more than 10 µM in assay [1] and 0.0001 to 1 µM at BRAF V600E. Moreover, the EC50 (in assay [2] (numeric bounds); in the assay on B9 (HRAS Q61L) cell line (numeric bounds)) was more than 10 µM in each case.

`CCN(C)S(=O)(=O)Nc1cccc(C(=O)c2c[nH]c3ncnc(NC(C)C)c23)c1F` [P-2067, 5-[3-[[ethyl(methyl)sulfamoyl]amino]-2-fluoro-benzoyl]-4-(isopropylamino)-7H-pyrrolo[2,3-d]pyrimidine]: the IC50 (in assay [1]; on BRAF V600E) was 0.0001 to 1 µM in each case. Further, the EC50 (in assay [2] (numeric bounds); in the assay with B9 (HRAS Q61L) cell line (numeric bounds)) was more than 10 µM each time.

Regarding `CN(C)S(=O)(=O)Nc1ccc(F)c(C(=O)c2c[nH]c3ncncc23)c1F` [P-2026, 5-[3-(dimethylsulfamoylamino)-2,6-difluoro-benzoyl]-7H-pyrrolo[2,3-d]pyrimidine], the IC50 in assay [1] is more than 10 µM; against BRAF V600E, 1 to 10 µM. The concentration for a half-maximal effect (EC50) (in assay [2] (numeric bounds); with B9 (HRAS Q61L) cell line (numeric bounds)) was more than 10 µM each time.

On to `CC(C)S(=O)(=O)Nc1ccc(F)c(C(=O)c2c[nH]c3nccc(C#N)c23)c1F` [P-2017, N-[3-(4-cyano-1H-pyrrolo[2,3-b]pyridine-3-carbonyl)-2,4-difluoro-phenyl]propane-2-sulfonamide], for which the IC50 (in assay [1]; on BRAF V600E) was 0.0001 to 1 µM each time. In addition, the EC50 (in assay [2] (numeric bounds); with B9 (HRAS Q61L) cell line (numeric bounds)) was more than 10 µM each time.

Take `CC(C)Nc1ncnc2[nH]cc(C(=O)c3c(F)ccc(NS(=O)(=O)N4CCOCC4)c3F)c12` [P-2044, N-[2,4-difluoro-3-[4-(isopropylamino)-7H-pyrrolo[2,3-d]pyrimidine-5-carbonyl]phenyl]morpholine-4-sulfonamide]: the IC50 (in assay [1]; at BRAF V600E) was 0.0001 to 1 µM throughout. In addition, the EC50 (in assay [2] (numeric bounds); in the assay on B9 (HRAS Q61L) cell line (numeric bounds)) was more than 10 µM each time.

In the case of `CCC(C)S(=O)(=O)Nc1ccc(F)c(C(=O)c2c[nH]c3nccc(OC)c23)c1F` (stereo not drawn) [Compound P-2006, N-[2,4-difluoro-3-(4-methoxy-1H-pyrrolo[2,3-b]pyridine-3-carbonyl)phenyl]butane-2-sulfonamide], the IC50 (in assay [1]; against BRAF V600E) was 0.0001 to 1 µM each time. Besides, the EC50 (in assay [2] (numeric bounds); with B9 (HRAS Q61L) cell line (numeric bounds)) was more than 10 µM throughout.

As for `O=C(O)CNc1ncnc2[nH]cc(C(=O)c3cccc(NS(=O)(=O)N4CCCC4)c3F)c12` [P-2109, 2-[[5-[2-fluoro-3-(pyrrolidin-1-ylsulfonylamino)benzoyl]-7H-pyrrolo[2,3-d]pyrimidin-4-yl]amino]acetic acid], the IC50 in assay [1] lay in the range of 1 to 10 µM; against BRAF V600E, 0.0001 to 1 µM. Besides, the EC50 (in assay [2] (numeric bounds); in the assay with B9 (HRAS Q61L) cell line (numeric bounds)) was more than 10 µM each time.

The record behind these values is US10421761B2, “Compounds for kinase modulation, and indications therefor” (Plexxikon Inc., priority 2013, dated 2019).
